Source: patent US20040110681A1, “Method to identify targeting molecules” (priority 2002, published 2004)
Positions of bridges follow the written chain, without caps; N, C: chain ends. Non-standard residues stand in square brackets, D forms with d. Residues, ends and D or L forms follow the SMILES beside them. hArg = N=C(N)NCCCC[C@H](N)C(=O)O; Mpa = O=C(O)CCS

Legend:
[1] = tested on: brain tissue; assay: Individual peptide variants of A3 on phage, brain selectivity index vs T7-lacZ; format: in vivo, FVB or BALB/c mice; settings: 2 hours circulation; for Brain Targeting Activity: 0.5-1×10^10 pfu co-injected with T7-lacZ; for Selectivity index (FVB female) / Selectivity index (BALB/C mice): brain tissue; for Selectivity index (FVB female): FVB female mice
Description: In this example, various individual peptide variants of A3 were tested in vivo for their ability to target brain or other tissues. […] The phage contents of each organ were determined by plaque assay in the presence of X-gal (500 μg/mL) in top agar.
Thus, selectively indices of less than 10 are considered low, those between 10 and […] are considered moderate and those over 100 are considered high.

[2] = tested on: platelets adhering to the pial vasculature; assay: Intravital microscopy of platelet adhesion to pial vessels, LPS-induced model of sepsis
Description: The effect of the A3 mimetic of blood cell adhesion to brain vasculature was assessed by intravital microscopy. Platelets or leukocytes were fluorescently labeled and then the interaction of the labeled cells with the vascular endothelium imaged and analyzed pre and post the addition of various compounds. Platelets were isolated from blood of source animals by differential centrifugation at 200 g for 10 minutes, to pellet erythrocytes and leukocytes. The supernatant, designated platelet-rich plasma contained less than 0.5% leukocytes as determined by the number of DAPI-positive nucleated cells. The platelets were pelleted by spinning at 500 g, resuspended in Tyrode's buffer and incubated for 20 min with 5-,-6-carboxyfluorescein diacetate, succinimidyl ester (CFDA, or CFSE). 1×10^8 platelets in 0.1 ml were injected slowly over 5 minutes via a carotid catheter into anesthetized mice. […] Platelet rolling and adhesion was recorded for off-line analysis onto videotape or onto hard-drive of the computer via an intensified camera (Cascade, Roper Scientific) on a Leica DM-FSA upright microscope. […] Leukocytes are fluorescence-labeled in vivo by injecting Rhodamine 6G via a carotid catheter and analyzing the movement of the labeled cells on brain endothelium.
For the platelet studies a known antagonist of platelet-platelet interactions, Integrilin™ (Cor Therapeutics) was also evaluated. […]

Compound | Brain Targeting Activity [1] | Selectivity index (FVB female) [1] | Selectivity index (BALB/C mice) [1] | Brain Targeting Activity ([1]; listed as A2G) | platelet adhesion to pial vessels ([2]; 4 hours after i.p. 10 μg LPS, Integrilin at 40 mg/kg) | DIC and adhesion of microaggregates to the brain vasculature ([2]; higher doses than 40 mg/kg)
CAGALC | No | 1.5 |  |  |  | 
CAGALCS | loss of brain targeting activity and No | 3.0 |  |  |  | 
CLCY | No | 3.5 |  |  |  | 
CAGALCF | Yes | >200 | 800 |  |  | 
CAGDSMCY [reference compound] | negative and No |  | 0.9 |  |  | 
CGGALCY | No | 0.7 |  | loss of brain targeting activity |  | 
CAGAPCY | brain targeting capacity is lost and No | 7.6 |  |  |  | 
CYGDPC [reference compound] | No | 0.8 |  |  |  | 
CAGALSY | brain targeting capacity is lost and No | 1.9 |  |  |  | 
CGFDMPC [reference compound] | No | 0.5 |  |  |  | 
CGALCY | No | 0.8 |  |  |  | 
CPADCY [reference compound] | No | 0.3 |  |  |  | 
N=C(N)NCCCC[C@@H]1NC(=O)CCSSC[C@@H](C(N)=O)NC(=O)[C@@H]2CCCN2C(=O)[C@H](Cc2c[nH]c3ccccc23)NC(=O)[C@H](CC(=O)O)NC(=O)CNC1=O [Integrilin] ([Mpa][hArg]GDWPC-NH2; disulfide 1-7) |  |  |  |  | slight antagonistic effect | exacerbated DIC and adhesion of microaggregates to the brain vasculature
